Non-standard residues stand in square brackets, D forms with d. No end group written: not given here. Ahx = NCCCCCC(=O)O
How the values were obtained:
aggregated human αSyn [1] = assay: Antibody-inducing ability in mice: ELISA antibody titer of immune serum with respect to aggregated human αSyn; assay type: in vivo, mouse; settings: for Antibody titer with respect to aggregated human αSyn (N = 4 − 6, mean ± standard deviation): Example 2, serum 2 weeks after second administration; for Antibody titer with respect to aggregated human αSyn, relative to control: mice
Protocol: (§1) Using the various AJ peptide-human αSyn peptide conjugates produced in Example 1, an antibody-inducing ability with respect to human αSyn in mice was evaluated. The various AJ-human αSyn peptide conjugates (250 μg/mouse) or KLH-DMPVDPDN (25 μg/mouse) in physiological saline were intramuscularly administered to balb/c mice (females, 6 weeks old, CLEA Japan, Inc.) twice at a 2-week interval for immunization using aluminum hydroxide (Alum) (InvivoGen, 50 μg/mouse) as an adjuvant. As a negative control, physiological saline (100 μL/mouse) comprising the same amount of aluminum hydroxide was administered twice. Two weeks after the second administration, serum was recovered to evaluate the antibody titer with respect to human αSyn by ELISA.
(§2) ELISA was performed by the following method. 96-well plates were coated with human αSyn (Sigma) at 0.2 μg/well. After washing with PBST (Phosphate Buffered Saline comprising 0.05% Tween) once, blocking was performed with 3% skim milk (FUJIFILM Wako Pure Chemical Corporation). After washing with PBST three times, diluted serum was added to cause a reaction at room temperature for 1 hour. Furthermore, after washing with PBST three times, Goat anti-mouse IgG-HRP (abcam) was added to cause a reaction at room temperature for 1 hour. After washing with PBST three times, SureBlue TMB Microwell Peroxidase Substrate (KPL) was added to cause a reaction at room temperature for 10 minutes while light shielding. An equal volume of a TMB Stop Solution (KPL) was added to stop the reaction, and the absorbance at 450 nm was measured. ELISA with respect to aggregated human αSyn was performed by coating with the aggregated human αSyn (Stress Marq) at 15 ng/well instead of human αSyn in the above-mentioned method.
The antibody-inducing ability of the AJ-human αSyn peptide conjugates (AJ-p54, AJ-p54-KLH, and AJ-DMPVDPDN) produced in Example 1 with respect to human αSyn and aggregated human αSyn in mice was evaluated. Physiological saline or the AJ-human αSyn peptide conjugate (250 μg/mouse) was intramuscularly administered to balb/c mice (females, 6 weeks old, CLEA Japan, Inc.) twice at a 2-week interval using Alum (InvivoGen, 50 μg/mouse) as an adjuvant. Furthermore, KLH-DMPVDPDN (25 μg/mouse) was administered using Alum (InvivoGen, 50 μg/mouse) as an adjuvant. Two weeks after the second administration, serum was recovered to evaluate the antibody titer by ELISA. ELISA was performed by the method described in Example 2.
The antibody-inducing ability of the produced various human αSyn peptide conjugates with respect to human αSyn and aggregated human αSyn in the mice was evaluated by the method described in Example 2 using the antibody titers with respect to human αSyn and aggregated human αSyn of the mouse immune serum. […] In Table 6, the antibody titer of AJ-p242, AJ-p244, AJ-p347, or AJ-p361 is shown with the antibody titer of AJ-p150 as a control being 1 (logarithm). In addition, the antibody titers of AJ-p229, AJ-p237, and AJ-p298 are shown with the antibody titer of AJ-p54 as a control being 1 (logarithm).
The antibody-inducing ability of the AJ-human αSyn peptide conjugates with a modified linker with respect to human αSyn and aggregated human αSyn in the mice was evaluated using the antibody titers with respect to human αSyn and aggregated human αSyn of the mouse immune serum. […] In Table 8, the antibody titers of the AJ-human αSyn peptide conjugates with various modified linkers comprising p54 are shown with the antibody titer of AJ-p54 as a control being 1 (logarithm). In addition, the antibody titers of the AJ-human αSyn peptide conjugates with various modified linkers comprising p150 are shown with the antibody titer of AJ-p150 as a control being 1 (logarithm).

aggregated human αSyn [2] = assay: Antibody-inducing ability in cynomolgus monkeys: ELISA antibody titer with respect to aggregated human αSyn; assay type: in vivo; settings: i.m. three times at 2-week interval, Alum; AJ conjugates 2,000 μg/monkey, KLH-DMPVDPDN 75 μg/monkey; FIG. 4B
Protocol: The antibody-inducing ability of the AJ-human αSyn peptide conjugate with respect to human αSyn and aggregated human αSyn in cynomolgus monkeys was evaluated. The AJ-human αSyn peptide conjugates (AJ-p54, AJ-p150, AJ-p283, AJ-p142, and AJ-p273) (2,000 μg/monkey) and KLH-DMPVDPDN (75 μg/monkey) were intramuscularly administered to cynomolgus monkeys (males, 3 to 7 years old, SNBL, Ltd.) three times at a 2-week interval using Alum (InvivoGen, 200 μg/monkey) as an adjuvant. Blood was collected before administration and 4, 6, 8, and 10 weeks after the first administration to recover the serum. ELISA was performed by the following method.
96-well plates were coated with human αSyn (Sigma-Aldrich) or aggregated human αSyn (StressMarq Biosciences Inc.) at 0.2 μg/well or 15 ng/well. After washing with PBST once, blocking was performed with 3% skim milk (FUJIFILM Wako Pure Chemical Corporation). After washing with PBST three times, diluted serum was added to cause a reaction at room temperature for 1 hour. Furthermore, after washing with PBST three times, Goat anti-Monkey IgG-HRP (Bio-Rad Laboratories, Inc.) was added to cause a reaction at room temperature for 1 hour. […] An equal volume of a TMB Stop Solution (KPL) was added to stop the reaction, and the absorbance at 450 nm was measured.

human αSyn = assay: Antibody-inducing ability in mice: ELISA antibody titer of immune serum with respect to human αSyn; assay type: in vivo, mouse; design: key to Antibody titer with respect to human αSyn, relative to control: log titer relative to control conjugate (control = 1); settings: for Antibody titer with respect to human αSyn (N = 4 − 6, mean ± standard deviation): Example 2, serum 2 weeks after second administration
Protocol: as §1
as §2, with “above-mentioned method. […]” for “above-mentioned method.”
The antibody-inducing ability of the produced various human αSyn peptide conjugates with respect to human αSyn and aggregated human αSyn in the mice was evaluated by the method described in Example 2 using the antibody titers with respect to human αSyn and aggregated human αSyn of the mouse immune serum. […] In Table 6, the antibody titer of AJ-p242, AJ-p244, AJ-p347, or AJ-p361 is shown with the antibody titer of AJ-p150 as a control being 1 (logarithm). In addition, the antibody titers of AJ-p229, AJ-p237, and AJ-p298 are shown with the antibody titer of AJ-p54 as a control being 1 (logarithm). […]

aggregated human αSyn [3] = target: aggregated human αSyn (Homo sapiens, UniProt P37840); assay: Aggregated human αSyn-neutralizing effect of antibody induced in mice: phosphorylation of human αSyn in SH-SY5Y cells; assay type: cell-based; design: purchased Stress Marq (StressMarq Biosciences Inc.); settings: antibody (100 μg/mL) induced in C57BL/6 mice by the vaccine; FIG. 1B, isotype control = 100
Protocol: The aggregated human αSyn-neutralizing effect of the antibody induced in the mice by the AJ-human αSyn peptide conjugate (AJ-p54) produced in Example 1 was evaluated. Physiological saline or the AJ-human αSyn peptide conjugate (250 μg/mouse) was intramuscularly administered to C57BL/6 mice (males, 6 weeks old, CLEA Japan, Inc.) four times at a 2-week interval using CFA (DIFCO) as an adjuvant. Furthermore, KLH-DMPVDPDN (25 μg/mouse) was administered using Alum (InvivoGen, 50 μg/mouse) as an adjuvant. Two weeks after the fourth administration, serum was recovered. After recovering the antibodies comprised in the serum by Protein G HP SpinTrap (Cytiva), the human αSyn- and aggregated human αSyn-neutralizing effect was evaluated by a method described below.
As the human αSyn- and aggregated human αSyn-neutralizing effect, the influence on phosphorylation of human αSyn in SH-SY5Y cells (ATCC) was evaluated. The SH-SY5Y cells were seeded in a 96-well plate at 2×10^4 cells/well and cultured under the conditions of 37° C. and 5% CO2. […] After fixing the cells with a 4% paraformaldehyde/phosphate buffer solution (FUJIFILM Wako Pure Chemical Corporation), phosphorylated human αSyn was stained with a fluorescence-labeled anti-phosphorylated αSyn antibody (Cell Signaling). The amount of phosphorylated human αSyn was evaluated by image analysis using ArrayScan (Thermo Fisher Scientific Inc.). […]

[4] = balb/c mice, i.m. twice at 2-week interval, Alum, AJ conjugates 250 μg/mouse, KLH-DMPVDPDN 25 μg/mouse
[5] = Example 4, balb/c mice, i.m. twice at 2-week interval, Alum, AJ conjugates 250 μg/mouse, KLH-DMPVDPDN 25 μg/mouse

| Phosphorylation of human αSyn in SH-SY5Y cells to which aggregated human αSyn was added (aggregated human αSyn [3]) | Sequence | Antibody titer with respect to aggregated human αSyn (N = 4 − 6, mean ± standard deviation) (aggregated human αSyn [1]; [4]) | Induction of the antibody to aggregated human αSyn in cynomolgus monkeys (aggregated human αSyn [2]) | Antibody titer with respect to human αSyn (N = 4 − 6, mean ± standard deviation) (human αSyn; [4]) | Induction of the antibody to aggregated human αSyn (in words) (aggregated human αSyn [1]; Example 4, balb/c mice) | Antibody titer with respect to aggregated human αSyn (mean ± standard deviation) (aggregated human αSyn [1]; [5]) | Antibody titer with respect to aggregated human αSyn, relative to control (aggregated human αSyn [1]; Example 9, N = 4, titer of AJ-p150 or AJ-p54 as control being 1 (logarithm)) | Antibody titer with respect to aggregated human αSyn, relative to control (aggregated human αSyn [1]; Example 10, modified linker, titer of AJ-p54 or AJ-p150 as control being 1 (logarithm)) | Induction of the antibody to human αSyn (in words) (human αSyn; Example 3, mice) | Antibody titer (N = 4 − 6, mean ± standard deviation) with respect to human αSyn (human αSyn; Example 3, mice, same manner as Example 2) | Induction of the antibody to human αSyn (in words) (human αSyn; Example 4, balb/c mice) | Antibody titer with respect to human αSyn (mean ± standard deviation) (human αSyn; [5]) | Antibody titer with respect to human αSyn, relative to control (human αSyn; Example 9, mice, N = 4, titer of AJ-p150 or AJ-p54 as control being 1 (logarithm)) | Antibody titer with respect to human αSyn, relative to control (human αSyn; Example 10, modified linker, mice, titer of AJ-p54 or AJ-p150 as control being 1 (logarithm)) |
| --- | --- | --- | --- | --- | --- | --- | --- | --- | --- | --- | --- | --- | --- | --- |
|  | ELKLIFLHRLKRLRKRLKRKXKKTQLGKND (ELKLIFLHRLKRLRKRLKRK[Ahx]KKTQLGKND) [AJ-p273] | 704 ± 896 | not induced | 3328 ± 3278 |  |  |  |  |  |  |  |  |  |  |
| inhibited | ELKLIFLHRLKRLRKRLKRKXKKDQLGKNE (ELKLIFLHRLKRLRKRLKRK[Ahx]KKDQLGKNE) [AJ-p54, AJ peptide linked to p54 via ε-Acp (X)] | 768 ± 862 |  | 4096 ± 2896 | induced | 768 ± 296 | 1 | 1 | induced to the same extent | 1434 ± 1510 | induced | 1434 ± 1510 | 1 | 1 |

Source: patent US20240270801A1, “EPITOPE PEPTIDE OF HUMAN ALPHA-SYNUCLEIN AND PHARMACEUTICAL COMPOSITION INCLUDING SAID PEPTIDE” (Sumitomo Pharma Co., Ltd., priority 2021, published 2024)
